Reference: patent US20260226049A1, “NITROGEN-CONTAINING HETEROCYCLIC COMPOUND, PREPARATION METHOD THEREFOR, AND USE THEREOF” (BIVISION PHARMACEUTICALS, INC, priority 2023, published 2026)
pKd: −log10 of the molar value. One block for each molecule: values may come before it.

Legend:
FAP protein = biological target: T1, FAP protein (Homo sapiens, UniProt Q12884); assay: Biacore test of ligand binding to FAP protein; settings: FAP protein on SA chip, 15° C., 1:1 binding model
T1 construct: purchased Sinobiological
T1 sequence (Q12884 1-760): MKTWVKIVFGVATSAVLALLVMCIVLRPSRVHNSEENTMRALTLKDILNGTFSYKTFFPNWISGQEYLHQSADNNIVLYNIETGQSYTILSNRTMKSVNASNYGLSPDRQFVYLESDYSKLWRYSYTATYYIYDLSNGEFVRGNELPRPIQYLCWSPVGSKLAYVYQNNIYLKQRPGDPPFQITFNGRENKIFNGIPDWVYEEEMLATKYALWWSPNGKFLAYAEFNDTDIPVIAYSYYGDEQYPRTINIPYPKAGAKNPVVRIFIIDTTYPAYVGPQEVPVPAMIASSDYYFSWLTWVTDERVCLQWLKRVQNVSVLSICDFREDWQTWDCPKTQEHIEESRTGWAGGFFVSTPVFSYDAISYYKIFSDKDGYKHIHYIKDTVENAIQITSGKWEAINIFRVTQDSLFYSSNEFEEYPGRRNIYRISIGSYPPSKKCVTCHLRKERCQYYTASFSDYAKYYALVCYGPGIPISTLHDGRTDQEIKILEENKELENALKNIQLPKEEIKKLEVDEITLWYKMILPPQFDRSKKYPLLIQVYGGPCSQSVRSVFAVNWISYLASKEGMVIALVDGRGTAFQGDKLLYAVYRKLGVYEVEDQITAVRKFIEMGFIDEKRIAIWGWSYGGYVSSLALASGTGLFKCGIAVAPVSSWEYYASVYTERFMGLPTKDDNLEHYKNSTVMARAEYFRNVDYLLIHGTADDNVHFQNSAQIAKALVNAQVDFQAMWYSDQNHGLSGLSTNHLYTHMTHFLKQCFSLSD
Protocol: The Biacore 8K (Cytiva) instrument was used to detect ligand binding of the FAP protein (Sinobiological). The FAP protein was captured on the SA chip. Before ligand immobilization (flow paths 1 and 2, flow rate of 10 μL/min), the FAP protein (10 μg/mL, flow rate of 5 μL/min, injection time of 600 s) was immobilized on flow path 2 using running buffer, and the sensor surface was conditioned with three consecutive injections of 1 M NaCl in 50 mM NaOH. After each ligand injection, additional washing was carried out with isopropanol in 1 M NaCl and 50 mM NaOH (flow paths 1 and 2, flow rate of 10 μL/min, injection time of 60 s).
The test compounds were dissolved in 100% dimethyl sulfoxide and diluted to 10 mM, then further diluted in the assay buffer (PBS, pH 7.4, 1 mM TCEP ([…]), 0.05% P20, 2% dimethyl sulfoxide) to appropriate maximum concentrations. The analyte was run under the following conditions: analysis temperature=15° C., analysis step=all set to LMW kinetics; cycle type=single cycle (90 s contact time, 1800 s dissociation time, 30 μL/min flow rate, flow channels 1, 2); flow channel detection=2-1). Data evaluation was performed using Biacore Insight Evaluation Software, and the data were fitted to a 1:1 binding model.
The Biacore results are shown in Table 1: pKD=−Log KD, where KD is the binding affinity of the compound to the FAP protein as measured by Biacore. The binding affinity is expressed by KD (M)=Kd(1/s)/Ka(1/Ms). Where A: pKD>8, B: 7<pKD<8, C: 6<pKD<7, D: pKD<6.

[1] = tested on: HT1080 cell line with high FAP expression; assay: Therapeutic experiment of ^177Lu-labeled compounds in tumor-bearing mice; assay type: in vivo, Balb/c Nude mice; settings: for therapeutic effects in mouse tumor model: ^177Lu-labeled compound; for T/C / Tumor volume (mm^3) Group administration Day 14 / TGI^TV (%): 0.8 mCi; for T/C / Tumor volume (mm^3) Group administration Day 14: Day 14; for TGI^TV (%): Day 14, relative tumor inhibition rate; for Tumor volume (mm^3) Before administration: baseline, 0.8 mCi group
Protocol: Balb/c Nude tumor-bearing mice (supplier: Shanghai Alamo Pharmaceutical Technology Co., Ltd., HT1080 cell line with high FAP expression) aged approximately 6-8 weeks were randomly assigned to 13 experimental groups based on tumor volume, with 5 mice per group. Animal body weight and tumor size were measured, and administration was initiated on the grouping day starting with Group 1 (control group: normal saline). General health and appearance were observed daily after the start of the experiment. Animal body weight and tumor size were measured before each sample collection time point. Any abnormal observations detected during the entire study period were required to be recorded in the raw data.
The synthesized compounds were labeled with ^177Lu and subsequently utilized in the therapeutic assay on mouse tumor models. […] Furthermore, no significant changes in mouse body weight (FIG. 8) were observed throughout the experimental period.
• TGI^TV: Relative tumor inhibition rate (TGI^TV): TGI^TV (%)=[1−(Ti−T0)/(Vi−V0)]×100%; • (Ti: average tumor volume of the treatment group on day i of administration, TO: average tumor volume of the treatment group on day 0 of administration; Vi: average tumor volume of the solvent control group on day i of administration, V0: average tumor volume of the solvent control group on day 0 of administration) • T/C: T/C % is one of the most commonly used indicators for tumor response to treatment: T/C %=T/C*100%; • (T represents the average tumor volume of the treatment group at a specific time point; C represents the average tumor volume of the control group at a specific time point.)
The differences between the treatment groups (tumor volumes of the second, third, fourth, and fifth groups) and the control group (tumor volume of the first group) and between the tumor volumes of the first, third, fourth, and fifth groups and the tumor volume of the second group were analyzed using the two-way ANOVA Fisher's LSD test method. P-values less than 0.05 were considered statistically significant. Both statistical significance and biological significance were taken into account during the result analysis.

pKd (FAP protein): 6.00 to 7.00
SMILES: C[C@@H](NC(=O)c1ccc(CNC(=O)CCC(=O)NCCCC[C@H](NC(=O)CCC(=O)NCc2ccc(C(=O)N[C@H](C)C(=O)N3CCC[C@H]3B(O)O)cc2)C(=O)NCCOCCNC(=O)CN2CCN(CC(=O)O)CCN(CC(=O)O)CCN(CC(=O)O)CC2)cc1)C(=O)N1CCC[C@H]1B(O)O [JHDB2]

pKd (FAP protein): 7.00 to 8.00
SMILES: O=C(O)CN1CCN(CC(=O)O)CCN(CC(=O)NCc2ccc(C(=O)N[C@H](CO)C(=O)N3CCC[C@H]3B(O)O)cc2)CCN(CC(=O)O)CC1 [JHB1]

SMILES: N#C[C@@H]1CC(F)(F)CN1C(=O)CNC(=O)c1cccc(C2CCN(C(=O)CCC(=O)NCCNC(=O)CCC(C(=O)O)N3CCN(CC(=O)O)CCN(CC(=O)O)CCN(CC(=O)O)CC3)CC2)c1 (some centres unmarked) [JHH9]
pKd (FAP protein): > 8.00
therapeutic effects in mouse tumor model [1]: dose-dependent therapeutic effects

pKd (FAP protein): > 8.00
SMILES: C[C@@H]1CC(F)(F)CN1C(=O)CNC(=O)c1ccc2c(c1)CN(C(=O)CCC(=O)NCCNC(=O)CCC(C(=O)O)N1CCN(CC(=O)O)CCN(CC(=O)O)CCN(CC(=O)O)CC1)C2 (some centres unmarked) [JHH7]

pKd (FAP protein): 6.00 to 7.00
SMILES: C[C@@H](NC(=O)c1cnc2c(c1)CCN(C(=O)CCC(=O)NCCNC(=O)CCC(C(=O)O)N1CCN(CC(=O)O)CCN(CC(=O)O)CCN(CC(=O)O)CC1)C2)C(=O)N1CC(F)(F)C[C@H]1C#N (stereo partly drawn) [JHM1, 2,2′,2″-(10-(1-carboxy-4-((2-(4-(3-(((R)-1-((S)-2-cyano-4,4-difluoropyrrolidin-1-yl)-1-oxopropan-2-yl)carbamoyl)-5,8-dihydro-1,7-naphthyridin-7 (6H)-yl)-4-oxobutanamido)ethyl)amino)-4-oxobutyl)-1,4,7,10-tetraazacyclododecane-1,4,7-triyl)triacetic acid]

pKd (FAP protein): > 8.00
SMILES: N#C[C@@H]1CC(F)(F)CN1C(=O)CNC(=O)c1cc2c(s1)CCN(C(=O)CCC(=O)NCCNC(=O)CCC(C(=O)O)N1CCN(CC(=O)O)CCN(CC(=O)O)CCN(CC(=O)O)CC1)C2 (some centres unmarked) [JHH3]

SMILES: N#C[C@@H]1CC(F)(F)CN1C(=O)CNC(=O)c1cccc2c1CCCN2C(=O)CCC(=O)NCCNC(=O)CCC(C(=O)O)N1CCN(CC(=O)O)CCN(CC(=O)O)CCN(CC(=O)O)CC1.[177Lu] (some centres unmarked) [^177Lu-JHH10]
T/C [1]: 19.38%
Tumor volume (mm^3) Group administration Day 14 [1]: 506.26 ± 26.61 mm^3
TGI^TV (%) [1]: 84.48%
Tumor volume (mm^3) Before administration [1]: 141.47 ± 12.20 mm^3

SMILES: N#C[C@@H]1CC(F)(F)CN1C(=O)CNC(=O)c1cccc2c1CCCC2C(=O)CCC(=O)NCCNC(=O)CCNC(=O)CN1CCN(CC(=O)O)CCN(CC(=O)O)CCN(CC(=O)O)CC1.[177Lu] (some centres unmarked) [^177Lu-JHH14]
T/C [1]: 28.93%
Tumor volume (mm^3) Group administration Day 14 [1]: 755.85 ± 58.74 mm^3
TGI^TV (%) [1]: 74.39%
Tumor volume (mm^3) Before administration [1]: 153.87 ± 16.47 mm^3

pKd (FAP protein): > 8.00
SMILES: N#C[C@@H]1CC(F)(F)CN1C(=O)CNC(=O)c1ccc2c(c1)CCN(C(=O)CCC(=O)NCC(=O)N1CN(C(=O)CNC(=O)CCC(=O)N3CCc4cc(C(=O)NCC(=O)N5CC(F)(F)C[C@H]5C#N)ccc4C3)CN(C(=O)CNC(=O)CN3CCN(CC(=O)O)CCN(CC(=O)O)CCN(CC(=O)O)CC3)C1)C2 [JHDB6]

pKd (FAP protein): > 8.00
SMILES: N#C[C@@H]1CC(F)(F)CN1C(=O)CNC(=O)c1ccc2c(c1)CCN(C(=O)CCC(=O)NCCNC(=O)CCNC(=O)CN1CCN(CC(=O)O)CCN(CC(=O)O)CCN(CC(=O)O)CC1)C2 [JHH12]

SMILES: N#C[C@@H]1CC(F)(F)CN1C(=O)CNC(=O)c1cccc2c1CCCC2C(=O)CCC(=O)NCCNC(=O)CCNC(=O)CN1CCN(CC(=O)O)CCN(CC(=O)O)CCN(CC(=O)O)CC1 (some centres unmarked) [JHH14]
therapeutic effects in mouse tumor model [1]: dose-dependent therapeutic effects

pKd (FAP protein): 7.00 to 8.00
SMILES: N#C[C@@H]1CC(F)(F)CN1C(=O)CNC(=O)c1cccc(C2CCN(C(=O)CCC(=O)NCC(=O)N3CN(C(=O)CNC(=O)CCC(=O)N4CCC(c5cccc(C(=O)NCC(=O)N6CC(F)(F)C[C@H]6C#N)c5)CC4)CN(C(=O)CNC(=O)CN4CCN(CC(=O)O)CCN(CC(=O)O)CCN(CC(=O)O)CC4)C3)CC2)c1 [JHDB7]

pKd (FAP protein): 7.00 to 8.00
SMILES: N#C[C@@H]1CC(F)(F)CN1C(=O)CNC(=O)c1ccc2c(c1)CCCN2C(=O)CCC(=O)NCCNC(=O)CCNC(=O)CN1CCN(CC(=O)O)CCN(CC(=O)O)CCN(CC(=O)O)CC1 [JHH13]

pKd (FAP protein): 7.00 to 8.00
SMILES: N#C[C@@H]1CC(F)(F)CN1C(=O)CNC(=O)c1cnc2c(c1)CCN(C(=O)CCC(=O)NCCNC(=O)CCC(C(=O)O)N1CCN(CC(=O)O)CCN(CC(=O)O)CCN(CC(=O)O)CC1)C2 (stereo partly drawn) [JHH1, 2,2′,2″-(10-(1-carboxy-4-((2-(4-(3-((2-((S)-2-cyano-4,4-difluoropyrrolidin-1-yl)-2-oxoethyl)carbamoyl)-5,8-dihydro-1,7-naphthyridin-7 (6H)-yl)-4-oxobutanamido)ethyl)amino)-4-oxobutyl)-1,4,7,10-tetraazacyclododecane-1,4,7-triyl)triacetic acid]
therapeutic effects in mouse tumor model [1]: dose-dependent therapeutic effects

SMILES: N#C[C@@H]1CC(F)(F)CN1C(=O)CNC(=O)c1cccc(C2CCN(C(=O)CCC(=O)NCCNC(=O)CCC(C(=O)O)N3CCN(CC(=O)O)CCN(CC(=O)O)CCN(CC(=O)O)CC3)CC2)c1.[177Lu] (some centres unmarked) [^177Lu-JHH9]
T/C [1]: 30.65%
Tumor volume (mm^3) Group administration Day 14 [1]: 800.87 ± 42.08 mm^3
TGI^TV (%) [1]: 72.54%
Tumor volume (mm^3) Before administration [1]: 155.24 ± 14.81 mm^3

pKd (FAP protein): > 8.00
SMILES: N#C[C@@H]1CC(F)(F)CN1C(=O)CNC(=O)c1cc2c(s1)CCN(C(=O)CCC(=O)NCCNC(=O)CCNC(=O)CN1CCN(CC(=O)O)CCN(CC(=O)O)CCN(CC(=O)O)CC1)C2 [JHH11]

pKd (FAP protein): 7.00 to 8.00
SMILES: N#C[C@@H]1CC(F)(F)CN1C(=O)CNC(=O)c1ccc2c(n1)CCN(C(=O)CCC(=O)NCCNC(=O)CCC(C(=O)O)N1CCN(CC(=O)O)CCN(CC(=O)O)CCN(CC(=O)O)CC1)C2 (some centres unmarked) [JHH2]

pKd (FAP protein): 6.00 to 7.00
SMILES: N#C[C@@H]1CC(F)(F)CC1C(=O)CNC(=O)c1ccc2c(c1)CCN(C(=O)CCC(=O)NCCNC(=O)CCC(C(=O)O)N1CCN(CC(=O)O)CCN(CC(=O)O)CCN(CC(=O)O)CC1)C2 (some centres unmarked) [JHH6]
